Laboratory results published in US9012460B2, “1-(2-phenoxymethylphenyl)piperazine compounds” (Theravance Biopharma R&D IP, LLC, priority 2010, dated 2015).

Tests used:
hSERT [1] = target: T1, hSERT (Homo sapiens, UniProt P31645); assay: hSERT membrane radioligand binding assay (Assay 1); settings: 3H-citalopram, membranes from HEK-293 cells expressing hSERT; read-out: SERT pKi (converted)
T1 construct: expressed in transfected cells; host or cells: HEK-293
Experimental: (§1) Membrane radioligand binding assays were used to measure inhibition of labeled ligand (^3H-citalopram or ^3H-nisoxetine or ^3H-WIN35428) binding to membranes prepared from cells expressing the respective human recombinant transporter (hSERT or hNET or hDAT) in order to determine the pKi values of test compounds at the transporters.
(§2) Recombinant human embryonic kidney (HEK-293) derived cell lines stably transfected with hSERT or hNET, respectively, were grown in DMEM medium supplemented with 10% dialyzed FBS (for hSERT) or FBS (for hNET), 100 μg/ml penicillin, 100 μg/ml streptomycin, 2 mM L-glutamine and 250 μg/ml of the aminoglycoside antibiotic G418, in a 5% CO2 humidified incubator at 37° C. When cultures reached 80% confluence, the cells were washed thoroughly in PBS (without Ca^2+ and Mg^2+) and lifted with 5 mM EDTA in PBS. Cells were pelleted by centrifugation, resuspended in lysis buffer (10 mM Tris-HCl, pH7.5 containing 1 mM EDTA), homogenized, pelleted by centrifugation, then resuspended in 50 mM Tris-HCl, pH 7.5 and 10% sucrose at 4° C. Protein concentration of the membrane suspension was determined using a Bio-Rad Bradford Protein Assay kit. Membranes were snap frozen and stored at −80° C. Chinese hamster ovary membranes expressing hDAT (CHO-DAT) were purchased from PerkinElmer and stored at −80° C.
(§3) Binding assays were performed in a 96-well assay plate in a total volume of 200 μL assay buffer (50 mM Tris-HCl, 120 mM NaCl, 5 mM KCl, pH 7.4) with 0.5, 1, and 3 μg membrane protein, for SERT, NET and DAT, respectively.
(§4) Stock solutions (10 mM in DMSO) of test compound were prepared and serial dilutions made using Dilution Buffer (50 mM Tris-HCl, 120 mM NaCl, 5 mM KCl, pH 7.4, 0.1% BSA, 400 μM ascorbic acid).
(§5) Following a 60 minute incubation at 22° C. (or a period sufficient to reach equilibrium), the membranes were harvested by rapid filtration over a 96-well UniFilter GF/B plate, pretreated with 0.3% polyethyleneimine, and washed 6 times with 300 μl wash buffer (50 mM Tris-HCl, 0.9% NaCl, pH 7.5 at 4° C.). Plates were dried overnight at room temperature, ˜45 μl of MicroScint™-20 (Perkin Elmer) added and bound radioactivity quantitated via liquid scintillation spectroscopy. Inhibition curves and saturation isotherms were analyzed using GraphPad Prism Software package (GraphPad Software, Inc., San Diego, Calif.). IC50 values were generated from concentration response curves using the Sigmoidal Dose Response (variable slope) algorithm in Prism GraphPad. Kd and Bmax values for the radioligand were generated from saturation isotherms using the Saturation Binding Global Fit algorithm in Prism GraphPad. pKi (negative decadic logarithm of Ki) values for test compounds were calculated from the best-fit IC50 values, and the Kd value of the radioligand, using the Cheng-Prusoff equation (Cheng & Prusoff (1973) Biochem. Pharmacol. 22(23):3099-3108): Ki=IC50/(1+[L]/Kd), where [L]=concentration radioligand.

hNET [2] = target: T2, hNET (Homo sapiens, UniProt P23975); assay: hNET membrane radioligand binding assay (Assay 1); settings: 3H-nisoxetine, membranes from HEK-293 cells expressing hNET; read-out: NET pKi (converted)
T2 construct: expressed in transfected cells; host or cells: HEK-293
T2 sequence (P23975 whole entry): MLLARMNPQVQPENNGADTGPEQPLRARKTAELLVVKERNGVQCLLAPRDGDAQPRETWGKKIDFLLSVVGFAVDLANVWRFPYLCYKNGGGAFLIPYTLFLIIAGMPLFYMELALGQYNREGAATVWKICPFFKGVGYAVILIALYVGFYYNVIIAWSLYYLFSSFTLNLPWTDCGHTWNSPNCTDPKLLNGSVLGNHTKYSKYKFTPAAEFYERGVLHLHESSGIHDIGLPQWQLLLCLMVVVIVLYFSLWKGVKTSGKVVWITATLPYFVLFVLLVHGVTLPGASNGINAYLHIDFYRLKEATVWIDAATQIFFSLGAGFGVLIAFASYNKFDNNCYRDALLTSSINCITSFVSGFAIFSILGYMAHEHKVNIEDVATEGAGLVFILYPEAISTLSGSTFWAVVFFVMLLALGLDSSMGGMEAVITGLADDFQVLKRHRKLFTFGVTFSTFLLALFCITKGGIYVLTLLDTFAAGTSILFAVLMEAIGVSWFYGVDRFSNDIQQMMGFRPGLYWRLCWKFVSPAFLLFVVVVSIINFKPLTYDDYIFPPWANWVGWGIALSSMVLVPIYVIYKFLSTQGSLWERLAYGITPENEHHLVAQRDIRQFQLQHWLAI
Experimental: as §1, §2, §3, §4, §5

hSERT [3] = target: T1, hSERT; assay: hSERT neurotransmitter uptake assay (Assay 2) or fluorescence-based assay of Tsuruda et al.; type: cell-based; settings: serotonin reuptake inhibition; asterisk = fluorescence-based assay (Tsuruda et al. 2010); read-out: SERT pIC50 (converted)
Experimental: (§6) Neurotransmitter uptake assays were used to measure inhibition of ^3H-serotonin (^3H-5-HT), ^3H-norepinephrine (^3H-NE), and ^3H-dopamine (^3H-DA) uptake into cells expressing the respective transporter (hSERT, hNET or hDAT) in order to determine the pIC50 values of test compounds at the transporters.
(§7) HEK-293 derived cell lines stably-transfected with hSERT, hNET, or hDAT, respectively, were grown in DMEM medium supplemented with 10% dialyzed FBS (for hSERT) or FBS (for hNET and hDAT), 100 μg/ml penicillin, 100 μg/ml streptomycin, 2 mM L-glutamine and 250 μg/ml of the aminoglycoside antibiotic G418 (for hSERT and hNET) or 800 ug/ml (for hDAT), in a 5% CO2 humidified incubator at 37° C. When cultures reached 80% confluence, the cells were washed thoroughly in PBS (without Ca^2+and Mg^2+) and lifted with 5 mM EDTA in PBS. […]
(§8) Following a 10 minute incubation, at 37° C., with radioligand, the cells were harvested by rapid filtration over a 96-well UniFilter GF/B plate, pretreated with 1% BSA, and washed 6 times with 650 μl wash buffer (ice cold PBS). Plates were dried overnight at 37° C., ˜45 μl of MicroScint™-20 (Perkin Elmer) added and incorporated radioactivity quantitated via liquid scintillation spectroscopy. Inhibition curves were analyzed using GraphPad Prism Software package (GraphPad Software, Inc., San Diego, Calif.). […]

hNET [4] = target: T2, hNET; assay: hNET neurotransmitter uptake assay (Assay 2) or fluorescence-based assay of Tsuruda et al.; type: cell-based; settings: norepinephrine reuptake inhibition; asterisk = fluorescence-based assay (Tsuruda et al. 2010); read-out: NET pIC50 (converted)
Experimental: as §6, §7, §8

T1 sequence (P31645 whole entry): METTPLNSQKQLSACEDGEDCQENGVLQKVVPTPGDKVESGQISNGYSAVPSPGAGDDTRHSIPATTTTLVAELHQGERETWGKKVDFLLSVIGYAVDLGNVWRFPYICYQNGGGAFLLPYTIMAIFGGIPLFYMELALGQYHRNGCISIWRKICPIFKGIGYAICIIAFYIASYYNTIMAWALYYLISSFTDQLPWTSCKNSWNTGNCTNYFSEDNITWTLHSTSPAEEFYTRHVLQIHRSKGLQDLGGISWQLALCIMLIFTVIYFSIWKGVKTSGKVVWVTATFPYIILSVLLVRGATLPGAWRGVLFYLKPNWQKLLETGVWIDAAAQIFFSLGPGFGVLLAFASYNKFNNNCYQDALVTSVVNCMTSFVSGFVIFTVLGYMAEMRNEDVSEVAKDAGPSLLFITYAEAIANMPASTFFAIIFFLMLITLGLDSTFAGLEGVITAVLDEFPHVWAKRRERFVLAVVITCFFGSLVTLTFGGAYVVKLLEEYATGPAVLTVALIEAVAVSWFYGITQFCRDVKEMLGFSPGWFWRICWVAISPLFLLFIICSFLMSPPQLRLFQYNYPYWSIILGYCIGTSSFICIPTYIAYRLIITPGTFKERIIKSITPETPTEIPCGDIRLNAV

Structure (SMILES) | Ki (hSERT [1]) | Ki (hNET [2]) | IC50 (hSERT [3]) | IC50 (hNET [4])
Fc1ccc(Br)c(OCc2ccccc2N2CCNCC2)c1 [Example 2-28] | ≤ 0.1 µM | ≤ 10 µM | – | –
Fc1ccccc1OCc1ccccc1N1CCNCC1 [Example 2-1] | ≤ 10 µM | ≤ 0.1 µM | – | –
Ic1cccc(OCc2ccccc2N2CCNCC2)c1 [Example 1, 1-[2-(3-Iodophenoxymethyl)phenyl]piperazine] | ≤ 0.1 µM | ≤ 0.1 µM | – | –
CC(C)c1ccccc1OCc1ccccc1N1CCNCC1 [Example 2-5] | ≤ 0.1 µM | ≤ 10 µM | – | –
Fc1c(Cl)cccc1OCc1ccccc1N1CCNCC1 [Example 2-18] | ≤ 0.1 µM | ≤ 10 µM | – | –
Brc1cccc(OCc2ccccc2N2CCNCC2)c1 [Example 2-13] | ≤ 0.1 µM | ≤ 0.1 µM | – | –
Fc1ccc(Cl)cc1OCc1ccccc1N1CCNCC1 [Example 2-24] | ≤ 0.1 µM | ≤ 10 µM | – | –
CC(C)c1cccc(C(C)C)c1OCc1ccccc1N1CCNCC1 [Example 2-38] | ≤ 10 µM | ≤ 10 µM | – | –
Clc1cc(Cl)c(OCc2ccccc2N2CCNCC2)cc1Cl [Example 2-39] | ≤ 0.1 µM | ≤ 0.1 µM | – | –
CCc1ccccc1OCc1ccccc1N1CCNCC1 [Example 2-6] | ≤ 0.1 µM | ≤ 10 µM | – | –
Fc1ccc(Cl)c(OCc2ccccc2N2CCNCC2)c1 [Example 2-27] | ≤ 0.1 µM | ≤ 10 µM | – | –
Clc1cccc(OCc2ccccc2N2CCNCC2)c1 [Example 2-12] | ≤ 0.1 µM | ≤ 0.1 µM | ≤ 0.1 µM | ≤ 0.1 µM
N#Cc1ccc(Cl)cc1OCc1ccccc1N1CCNCC1 [Example 2-32] | ≤ 0.1 µM | ≤ 10 µM | – | –
Clc1cccc(OCc2ccccc2N2CCNCC2)c1Cl [Example 2-19] | ≤ 0.1 µM | ≤ 10 µM | – | –
Cc1c(Cl)cccc1OCc1ccccc1N1CCNCC1 [Example 2-21] | ≤ 0.1 µM | ≤ 0.1 µM | – | –
Clc1ccccc1OCc1ccccc1N1CCNCC1 [Example 2-2] | ≤ 0.1 µM | ≤ 10 µM | – | –
Fc1cc(F)cc(OCc2ccccc2N2CCNCC2)c1 [Example 2-36] | ≤ 0.1 µM | ≤ 10 µM | – | –
Cc1ccccc1OCc1ccccc1N1CCNCC1 [Example 2-4] | ≤ 0.1 µM | ≤ 10 µM | – | –
c1ccc(COc2ccccc2OCc2ccccc2N2CCNCC2)cc1 [Example 2-11] | ≤ 10 µM | ≤ 10 µM | – | –
Cc1ccc(Cl)cc1OCc1ccccc1N1CCNCC1 [Example 2-30] | ≤ 0.1 µM | ≤ 0.1 µM | – | –
Clc1cc(Cl)c(Cl)c(OCc2ccccc2N2CCNCC2)c1Cl [Example 2-40] | ≤ 0.1 µM | ≤ 10 µM | – | –

Structure (SMILES) | Ki (hSERT [1]) | Ki (hNET [2]) | IC50 (hSERT [3]) | IC50 (hNET [4])
Cc1c(F)cccc1OCc1ccccc1N1CCNCC1 [Example 2-20] | ≤ 0.1 µM | ≤ 10 µM | – | –
Fc1ccc(Br)cc1OCc1ccccc1N1CCNCC1 [Example 2-25] | ≤ 0.1 µM | ≤ 0.1 µM | – | –
CC(C)(C)c1cccc(OCc2ccccc2N2CCNCC2)c1 [Example 2-15] | ≤ 10 µM | ≤ 10 µM | – | –
Cc1cccc(OCc2ccccc2N2CCNCC2)c1 [Example 2-14] | ≤ 0.1 µM | ≤ 10 µM | – | –
COc1ccccc1OCc1ccccc1N1CCNCC1 [Example 2-7] | ≤ 0.1 µM | ≤ 10 µM | – | –
Fc1ccc(OCc2ccccc2N2CCNCC2)cc1F [Example 2-33] | ≤ 0.1 µM | ≤ 0.1 µM | – | –
COc1cccc(OCc2ccccc2N2CCNCC2)c1 [Example 2-16] | ≤ 0.1 µM | ≤ 10 µM | – | –
Fc1ccc(F)c(OCc2ccccc2N2CCNCC2)c1 [Example 2-23] | ≤ 0.1 µM | ≤ 10 µM | – | –
c1ccc(Cc2ccccc2OCc2ccccc2N2CCNCC2)cc1 [Example 2-9] | ≤ 0.1 µM | ≤ 10 µM | – | –
Clc1ccc(OCc2ccccc2N2CCNCC2)cc1Cl [Example 2-35] | ≤ 0.1 µM | ≤ 0.1 µM | – | –
Clc1cc(Cl)cc(OCc2ccccc2N2CCNCC2)c1 [Example 2-37] | ≤ 0.1 µM | ≤ 10 µM | – | –
Clc1ccc(Cl)c(OCc2ccccc2N2CCNCC2)c1 [Example 2-26] | ≤ 0.1 µM | ≤ 10 µM | – | –
c1ccc(-c2ccccc2OCc2ccccc2N2CCNCC2)cc1 [Example 2-8] | ≤ 0.1 µM | ≤ 10 µM | – | –
Cc1ccc(OCc2ccccc2N2CCNCC2)cc1 [Example 2-17] | ≤ 10 µM | ≤ 10 µM | – | –
Ic1ccccc1OCc1ccccc1N1CCNCC1 [Example 2-3] | ≤ 0.1 µM | ≤ 0.1 µM | – | –
Cc1ccc(F)cc1OCc1ccccc1N1CCNCC1 [Example 2-29] | ≤ 0.1 µM | ≤ 10 µM | – | –
c1ccc(Oc2ccccc2OCc2ccccc2N2CCNCC2)cc1 [Example 2-10] | ≤ 10 µM | ≤ 0.1 µM | – | –
N#Cc1c(F)cccc1OCc1ccccc1N1CCNCC1 [Example 2-22] | ≤ 0.1 µM | ≤ 10 µM | – | –
Fc1cc(OCc2ccccc2N2CCNCC2)ccc1Cl [Example 2-34] | ≤ 0.1 µM | ≤ 0.1 µM | – | –
COc1ccc(Cl)cc1OCc1ccccc1N1CCNCC1 [Example 2-31] | ≤ 0.1 µM | ≤ 10 µM | – | –
